From PubChem BioAssay (NCI)
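GI50 = concentration required for 50% inhibition of growth. TGI: concentration producing complete growth inhibition.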

Legend:
Assay in all cases: NCI anticancer screen, dose series, 384-well format
NCI-H322M lung = system: NCI-H322M lung
SF-268 CNS = system: SF-268 CNS
MDA-MB-468 breast = system: MDA-MB-468 breast
MDA-MB-231 breast = system: MDA-MB-231 breast
CCRF-CEM leukemia = system: CCRF-CEM leukemia
UACC-62 melanoma = system: UACC-62 melanoma
SW-620 colon = system: SW-620 colon
IGROV1 ovarian = system: IGROV1 ovarian
RPMI-8226 leukemia = system: RPMI-8226 leukemia
SNB-75 CNS = system: SNB-75 CNS
SN12C renal = system: SN12C renal
SNB-19 CNS = system: SNB-19 CNS
CAKI-1 renal = system: CAKI-1 renal
NCI-H460 NSCLC = system: NCI-H460 NSCLC
SF-295 CNS = system: SF-295 CNS
HS 578T breast = system: HS 578T breast
NCI/ADR-RES ovarian = system: NCI/ADR-RES ovarian
DU-145 prostate = system: DU-145 prostate
BT-549 breast = system: BT-549 breast
M14 melanoma = system: M14 melanoma
RXF 393 renal = system: RXF 393 renal
HCT-15 colon = system: HCT-15 colon
SK-OV-3 ovarian = system: SK-OV-3 ovarian
NCI-H522 lung = system: NCI-H522 lung
OVCAR-4 ovarian = system: OVCAR-4 ovarian
SK-MEL-5 melanoma = system: SK-MEL-5 melanoma
KM12 colon = system: KM12 colon
TK-10 renal = system: TK-10 renal
HOP-92 NSCLC = system: HOP-92 NSCLC
A549 NSCLC = system: A549 NSCLC
MDA-MB-435 melanoma = system: MDA-MB-435 melanoma
SF-539 CNS = system: SF-539 CNS
U251 glioblastoma = system: U251 glioblastoma
NCI-H23 lung = system: NCI-H23 lung
UACC-257 melanoma = system: UACC-257 melanoma
MCF7 breast = system: MCF7 breast
HT29 colon = system: HT29 colon
COLO 205 colon = system: COLO 205 colon
NCI-H226 lung = system: NCI-H226 lung
OVCAR-3 ovarian = system: OVCAR-3 ovarian
SR leukemia = system: SR leukemia
HL-60(TB) leukemia = system: HL-60(TB) leukemia
A498 renal = system: A498 renal
ACHN renal = system: ACHN renal
MOLT-4 leukemia = system: MOLT-4 leukemia
HCT-116 colon = system: HCT-116 colon
EKVX NSCLC = system: EKVX NSCLC
786-0 renal = system: 786-0 renal
SK-MEL-2 melanoma = system: SK-MEL-2 melanoma
LOX IMVI melanoma = system: LOX IMVI melanoma
UO-31 renal = system: UO-31 renal
T-47D breast = system: T-47D breast
OVCAR-5 ovarian = system: OVCAR-5 ovarian
K-562 leukemia = system: K-562 leukemia
HOP-62 NSCLC = system: HOP-62 NSCLC
MALME-3M melanoma = system: MALME-3M melanoma
SK-MEL-28 melanoma = system: SK-MEL-28 melanoma
PC-3 prostate = system: PC-3 prostate
HCC-2998 colon = system: HCC-2998 colon

N[C@H](CCC(=O)N[C@@H](Cc1c[nH]c2ccccc12)C(=O)O)C(=O)O
GI50 (NCI-H322M lung): > 100 µM
TGI (NCI-H322M lung): > 100 µM
GI50 (SF-268 CNS): > 100 µM
TGI (SF-268 CNS): > 100 µM
GI50 (MDA-MB-468 breast): > 100 µM
TGI (MDA-MB-468 breast): > 100 µM
GI50 (MDA-MB-231 breast): > 100 µM
TGI (MDA-MB-231 breast): > 100 µM
GI50 (CCRF-CEM leukemia): > 100 µM
TGI (CCRF-CEM leukemia): > 100 µM
GI50 (UACC-62 melanoma): > 100 µM
TGI (UACC-62 melanoma): > 100 µM
GI50 (SW-620 colon): > 100 µM
TGI (SW-620 colon): > 100 µM
GI50 (IGROV1 ovarian): > 100 µM
TGI (IGROV1 ovarian): > 100 µM
GI50 (RPMI-8226 leukemia): > 100 µM
TGI (RPMI-8226 leukemia): > 100 µM
GI50 (SNB-75 CNS): > 100 µM
TGI (SNB-75 CNS): > 100 µM
GI50 (SN12C renal): > 100 µM
TGI (SN12C renal): > 100 µM
GI50 (SNB-19 CNS): > 100 µM
TGI (SNB-19 CNS): > 100 µM
GI50 (CAKI-1 renal): > 100 µM
TGI (CAKI-1 renal): > 100 µM
GI50 (NCI-H460 NSCLC): > 100 µM
TGI (NCI-H460 NSCLC): > 100 µM
GI50 (SF-295 CNS): > 100 µM
TGI (SF-295 CNS): > 100 µM
GI50 (HS 578T breast): > 100 µM
TGI (HS 578T breast): > 100 µM
GI50 (NCI/ADR-RES ovarian): > 100 µM
TGI (NCI/ADR-RES ovarian): > 100 µM
GI50 (DU-145 prostate): > 100 µM
TGI (DU-145 prostate): > 100 µM
GI50 (BT-549 breast): > 100 µM
TGI (BT-549 breast): > 100 µM
GI50 (M14 melanoma): > 100 µM
TGI (M14 melanoma): > 100 µM
GI50 (RXF 393 renal): > 100 µM
TGI (RXF 393 renal): > 100 µM
GI50 (HCT-15 colon): > 100 µM
TGI (HCT-15 colon): > 100 µM
GI50 (SK-OV-3 ovarian): > 100 µM
TGI (SK-OV-3 ovarian): > 100 µM
GI50 (NCI-H522 lung): > 100 µM
TGI (NCI-H522 lung): > 100 µM
GI50 (OVCAR-4 ovarian): > 100 µM
TGI (OVCAR-4 ovarian): > 100 µM
GI50 (SK-MEL-5 melanoma): > 100 µM
TGI (SK-MEL-5 melanoma): > 100 µM
GI50 (KM12 colon): > 100 µM
TGI (KM12 colon): > 100 µM
GI50 (TK-10 renal): > 100 µM
TGI (TK-10 renal): > 100 µM
GI50 (HOP-92 NSCLC): > 100 µM
TGI (HOP-92 NSCLC): > 100 µM
GI50 (A549 NSCLC): > 100 µM
TGI (A549 NSCLC): > 100 µM
GI50 (MDA-MB-435 melanoma): > 100 µM
TGI (MDA-MB-435 melanoma): > 100 µM
GI50 (SF-539 CNS): > 100 µM
TGI (SF-539 CNS): > 100 µM
GI50 (U251 glioblastoma): > 100 µM
TGI (U251 glioblastoma): > 100 µM
GI50 (NCI-H23 lung): > 100 µM
TGI (NCI-H23 lung): > 100 µM
GI50 (UACC-257 melanoma): > 100 µM
TGI (UACC-257 melanoma): > 100 µM
GI50 (MCF7 breast): > 100 µM
TGI (MCF7 breast): > 100 µM
GI50 (HT29 colon): > 100 µM
TGI (HT29 colon): > 100 µM
GI50 (COLO 205 colon): > 100 µM
TGI (COLO 205 colon): > 100 µM
GI50 (NCI-H226 lung): > 100 µM
TGI (NCI-H226 lung): > 100 µM
GI50 (OVCAR-3 ovarian): > 100 µM
TGI (OVCAR-3 ovarian): > 100 µM
GI50 (SR leukemia): > 100 µM
TGI (SR leukemia): > 100 µM
GI50 (HL-60(TB) leukemia): > 100 µM
TGI (HL-60(TB) leukemia): > 100 µM
GI50 (A498 renal): > 100 µM
TGI (A498 renal): > 100 µM
GI50 (ACHN renal): > 100 µM
TGI (ACHN renal): > 100 µM
GI50 (MOLT-4 leukemia): > 100 µM
TGI (MOLT-4 leukemia): > 100 µM
GI50 (HCT-116 colon): > 100 µM
TGI (HCT-116 colon): > 100 µM
GI50 (EKVX NSCLC): > 100 µM
TGI (EKVX NSCLC): > 100 µM
GI50 ([…]-0 renal): > 100 µM
TGI (786-0 renal): > 100 µM
GI50 (SK-MEL-2 melanoma): > 100 µM
TGI (SK-MEL-2 melanoma): > 100 µM
GI50 (LOX IMVI melanoma): > 100 µM
TGI (LOX IMVI melanoma): > 100 µM
GI50 (UO-31 renal): > 100 µM
TGI (UO-31 renal): > 100 µM
GI50 (T-47D breast): > 100 µM
TGI (T-47D breast): > 100 µM
GI50 (OVCAR-5 ovarian): > 100 µM
TGI (OVCAR-5 ovarian): > 100 µM
GI50 (K-562 leukemia): > 100 µM
TGI (K-562 leukemia): > 100 µM
GI50 (HOP-62 NSCLC): > 100 µM
TGI (HOP-62 NSCLC): > 100 µM
GI50 (MALME-3M melanoma): > 100 µM
TGI (MALME-3M melanoma): > 100 µM
GI50 (SK-MEL-28 melanoma): > 100 µM
TGI (SK-MEL-28 melanoma): > 100 µM
GI50 (PC-3 prostate): > 100 µM
TGI (PC-3 prostate): > 100 µM
GI50 (HCC-2998 colon): > 100 µM
TGI (HCC-2998 colon): > 100 µM
